Assay: assays described herein (not specified)

Row | SMILES | active in the assays described herein
1 | CCc1ccc(N2N=C(C)C(=Cc3cc(OC)c(O)c(OC)c3)C2=O)cc1 [Compound 72, 2-(4-ethylphenyl)-4-(4-hydroxy-3,5-dimethoxybenzylidene)-5-methyl-2,4-dihydro-3H-pyrazol-3-one] | active
2 | O=C(c1cccs1)N1CCN(c2ccc([N+](=O)[O-])c(N3CCCC3)c2)CC1 [Compound 114, 1-[4-nitro-3-(1-pyrrolidinyl)phenyl]-4-(2-thienylcarbonyl)piperazine] | active
3 | O=C1c2ccc([N+](=O)[O-])cc2C(=O)N1C1CC2CCC1C2 (stereo not drawn) [Compound 57, 2-bicyclo[2.2.1]hept-2-yl-5-nitro-1H-isoindole-1,3(2H)-dione] | active
4 | CN(C)c1ccc2sc(S)nc2c1 [Compound 95, 5-(dimethylamino)-1,3-benzothiazole-2-thiol] | active
5 | Cn1cccc1C=NN1CCN(Cc2cccc3ccccc23)CC1 [Compound 83, N-[(1-methyl-1H-pyrrol-2-yl)methylene]-4-(1-naphthylmethyl)-1-piperazinamine] | active
6 | COc1ccc(C(=C2C=CC=C2)c2ccc(OC)cc2)cc1 [Compound 46, 1,1′-(2,4-cyclopentadien-1-ylidenemethylene)bis(4-methoxybenzene)] | active

Source: patent US10098887B2, “Antiviral compounds and methods of use thereof” (Trana Discovery, Inc., priority 2010, dated 2018)
